Laboratory results from paper PMC6008492, “Structure activity relationship studies on rhodanines and derived enethiol inhibitors of metallo-β-lactamases” (Bioorganic & Medicinal Chemistry, 2018).

Columns and labels:
NDM-1 = biological target: T1, NDM-1 (Klebsiella pneumoniae, UniProt C7C422); test: NDM-1 inhibition, fluorogenic cephalosporin (FC5) hydrolysis; type: biochemical; conditions: enethiols 6 assayed as sodium salts; 10 min incubation; read-out: IC50 NDM-1
T1 construct: made in house
Description: (§1) Inhibition analyses against bacterial MBLs and SBLs were performed as described previously.[22], [24], [26] Residual enzyme activities were determined for a range of inhibitor concentrations. Non-linear regression fitting of IC50 curves was carried out using a three-parameter dose–response curve in GraphPad Prism. Errors in IC50 values are expressed as: σ(logIC50)/logIC50×IC50
(§2) We first screened the inhibitors against a representative set of presently clinically important and other MBLs[22], comprising both Class B1 enzymes (NDM-1, New Delhi MBL-1; VIM-2, Verona integron–encoded MBL-2; BcII, Bacillus cereus II MBL; SPM-1, São Paulo MBL-1; IMP-1, imipenemase MBL-1) and the Class B2 MBL CphA (carbapenem hydrolysing MBL from Aeromonas hydrophila).[22] The latter MBL (CphA) only utilises one active site Zn(II) ion in catalysis, whilst the others normally use two Zn(II) ions.
Figure S4: IC50 curves for NDM-1 inhibition time courses. Residual activities were calculated from the
(§3) initial rate of FC5 hydrolysis after incubation of the enzyme with the inhibitor for 10 minutes. […]

VIM-2 = biological target: T2, VIM-2 (Escherichia coli, UniProt Q5U7L7); test: biochemical; conditions: enethiols 6 assayed as sodium salts; 10 min incubation; read-out: IC50 VIM-2 (converted)
T2 construct: made in house
Description: as §1
as §2, with “ions. We also screened the inhibitors against a representative panel of SBLs from different classes (TEM-1, Temoneira β-lactamase-1, class A; CTX-M-15, cefotaxime hydrolysing β-lactamase from Munich 15, class A, extended spectrum β-lactamase (ESBL); AmpC E. coli, class C, and OXA-10, oxacillinase-10, class D).” for “ions.”
Figure S6: IC50 curves for VIM-2 inhibition time courses. Residual activities were calculated from the
as §3

SPM-1 = SPM-1 (Pseudomonas aeruginosa, UniProt Q8G9Q0); test: SPM-1 inhibition, fluorogenic cephalosporin (FC5) hydrolysis; type: biochemical; conditions: enethiols 6 assayed as sodium salts; 10 min incubation; read-out: IC50 SPM-1 (converted)
Chain of SPM-1 (Q8G9Q0 entry or part of it): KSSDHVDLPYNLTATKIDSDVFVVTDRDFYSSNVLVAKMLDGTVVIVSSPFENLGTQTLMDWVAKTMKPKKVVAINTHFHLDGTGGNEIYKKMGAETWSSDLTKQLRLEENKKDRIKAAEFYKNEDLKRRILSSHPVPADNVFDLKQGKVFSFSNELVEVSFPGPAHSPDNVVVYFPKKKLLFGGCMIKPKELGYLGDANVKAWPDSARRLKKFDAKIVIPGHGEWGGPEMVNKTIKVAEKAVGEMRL
Description: as §1, §2
Figure S5: IC50 curves for SPM-1 inhibition time courses. Residual activities were calculated from the
as §3

IMP-1 = biological target: T3, IMP-1 (Serratia marcescens, UniProt P52699); test: IMP-1 inhibition, fluorogenic cephalosporin (FC5) hydrolysis; type: biochemical; conditions: enethiols 6 assayed as sodium salts; 10 min incubation; read-out: IC50 IMP-1 (converted)
T3 construct: made in house
T3 sequence (P52699 19-246, looked up, species assumed): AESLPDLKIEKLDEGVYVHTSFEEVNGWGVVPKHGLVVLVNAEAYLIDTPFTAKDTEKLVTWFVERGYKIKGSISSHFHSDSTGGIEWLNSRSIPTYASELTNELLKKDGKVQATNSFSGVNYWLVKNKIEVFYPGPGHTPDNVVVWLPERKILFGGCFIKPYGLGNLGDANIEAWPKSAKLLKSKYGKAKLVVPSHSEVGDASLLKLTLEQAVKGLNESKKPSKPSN
Description: as §1, §2
Figure S3: IC50 curves for IMP-1 inhibition time courses. Residual activities were calculated from the
initial rate of FC5 hydrolysis after incubation of the enzyme with the inhibitor for 10 minutes.

BcII = biological target: T4, BcII (Bacillus cereus, UniProt P04190); test: biochemical; conditions: enethiols 6 assayed as sodium salts; 10 min incubation; read-out: IC50 BcII (converted)
T4 construct: made in house
T4 sequence (P04190 31-257): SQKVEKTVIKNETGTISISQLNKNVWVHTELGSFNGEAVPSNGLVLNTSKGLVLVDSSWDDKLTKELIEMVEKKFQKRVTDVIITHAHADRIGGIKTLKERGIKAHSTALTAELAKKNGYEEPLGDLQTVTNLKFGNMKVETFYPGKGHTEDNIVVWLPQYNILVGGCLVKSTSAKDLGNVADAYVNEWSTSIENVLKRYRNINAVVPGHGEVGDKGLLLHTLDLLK
Description: as §1, §2
Figure S2: IC50 curves for BcII inhibition time courses. Residual activities were calculated from the initial
rate of FC5 hydrolysis after incubation of the enzyme with the inhibitor for 10 minutes. […]

T1 sequence (C7C422 29-270, looked up, species assumed): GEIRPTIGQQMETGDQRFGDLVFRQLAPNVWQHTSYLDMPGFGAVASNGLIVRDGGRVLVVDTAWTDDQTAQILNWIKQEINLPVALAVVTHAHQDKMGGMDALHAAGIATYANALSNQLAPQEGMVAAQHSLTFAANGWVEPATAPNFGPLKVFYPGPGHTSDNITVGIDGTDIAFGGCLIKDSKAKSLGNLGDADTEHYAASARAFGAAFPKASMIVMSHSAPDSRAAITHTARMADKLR

Structure (SMILES) | IC50 (NDM-1) [µM] | IC50 (VIM-2) [µM] | IC50 (SPM-1) [µM] | IC50 (IMP-1) [µM] | IC50 (BcII) [µM]
CN1CCN(NC(=O)CN2C(=O)/C(=C/c3ccccc3Br)SC2=S)CC1 [Compound 5h] | > 50 | 11.4 | 8.1 | 8.3 | 14.6
COc1ccc(/C=C2\SC(=S)N(CC(=O)NN3CCN(C)CC3)C2=O)cc1 [Compound 5e] | 48.9 | > 50 | > 50 | 31.5 | > 50
CN1CCN(NC(=O)CN2C(=O)/C(=C/c3cccc(Cl)c3Cl)SC2=S)CC1 [Compound 5n] | 32.8 | 39.5 | 0.3 | 0.6 | 1.1
CN1CCN(NC(=O)CN2C(=O)/C(=C/c3ccc(Br)cc3)SC2=S)CC1 [Compound 5d] | > 50 | 44 | > 50 | 28.7 | > 50
O=C(O)CN1C(=O)/C(=C/c2ccccc2I)SC1=S [Compound 3i] | > 50 | 5.9 ± 0.1 | 2 ± 0.5 | 22.4 ± 0.4 | 31.7 ± 1
O=C(O)CN1C(=O)/C(=C/c2c(F)cccc2Cl)SC1=S [Compound 3j] | > 50 | 9.8 ± 2.8 | 1.2 ± 0.3 | 43.7 ± 0.5 | > 50
O=C(O)CN1C(=O)/C(=C/c2ccccc2)SC1=S [Compound 3a] | > 50 | 36.8 ± 0.3 | > 50 | > 50 | > 50
Cc1cccc(C)c1/C=C1\SC(=S)N(CC(=O)O)C1=O [Compound 3q] | > 50 | 18.7 ± 1 | > 50 | > 50 | > 50
O=C(O)CN1C(=O)/C(=C/c2c(F)ccc(F)c2F)SC1=S [Compound 3k] | > 50 | 47.6 ± 0.4 | 8.8 ± 0.3 | 46.5 ± 0.7 | 27 ± 2.2
O=C(O)/C(S)=C/c1ccccc1F [Compound 6f] | 12.9 | 3.3 | 0.3 | 1.4 | 4
O=C(O)/C(S)=C/c1ccccc1Cc1ccc2ccccc2c1 [Compound 6s] | 1.1 ± 1.7 | 0.1 ± 0.003 | 0.06 ± 0.003 | 0.08 ± 0.002 | 0.2 ± 0.03
O=C(O)CN1C(=O)/C(=C/c2ccc(Br)cc2)SC1=S [Compound 3d] | > 50 | > 50 | 39.7 ± 0.8 | > 50 | > 50
O=C(O)/C(S)=C/c1c(F)ccc(F)c1F [Compound 6k] | 3.3 | 0.3 | 0.1 | 0.4 | 0.3
Cc1ccc(/C=C(\S)C(=O)O)cc1 [Compound 6b] | 3.7 | 0.4 | 0.3 | 0.2 | 0.7
O=C(O)CN1C(=O)/C(=C/c2cc(Cl)ccc2Cl)SC1=S [Compound 3o] | > 50 | > 50 | 16.6 ± 1 | > 50 | > 50
O=C(O)CN1C(=O)/C(=C/c2csc3ccccc23)SC1=S [Compound 3L] | > 50 | 36.9 ± 0.2 | 13.9 ± 0.5 | > 50 | 21.7 ± 2.4
O=C(O)CN1C(=O)/C(=C/c2c(Cl)cccc2Cl)SC1=S [Compound 3m] | > 50 | 0.6 ± 0.1 | 3.5 ± 0.4 | 18.9 ± 0.8 | 41.8 ± 2.3
CN1CCN(NC(=O)CN2C(=O)/C(=C/c3ccc(F)cc3)SC2=S)CC1 [Compound 5c] | > 50 | > 50 | > 50 | > 50 | > 50
O=C(O)CN1C(=O)/C(=C/c2ccccc2F)SC1=S [Compound 3f] | > 50 | 17.6 ± 0.7 | > 50 | > 50 | > 50
O=C(O)CN1C(=O)/C(=C/c2ccccc2Cl)SC1=S [Compound 3g] | > 50 | 6.7 ± 0.2 | 25.1 ± 1.5 | 43.2 ± 2.1 | > 50

Structure (SMILES) | IC50 (NDM-1) [µM] | IC50 (VIM-2) [µM] | IC50 (SPM-1) [µM] | IC50 (IMP-1) [µM] | IC50 (BcII) [µM]
COc1ccc(/C=C(\S)C(=O)O)cc1 [Compound 6e] | 8.2 | 0.4 | 0.6 | 0.8 | 2.4
CN1CCN(NC(=O)CN2C(=O)/C(=C/c3ccccc3F)SC2=S)CC1 [Compound 5f] | > 50 | 6.2 | 42.7 | 22.6 | 26.3
COc1ccc(/C=C2\SC(=S)N(CC(=O)O)C2=O)cc1 [Compound 3e] | > 50 | > 50 | > 50 | > 50 | > 50
Cc1cccc(C)c1/C=C1\SC(=S)N(CC(=O)NN2CCN(C)CC2)C1=O [Compound 5q] | > 50 | 29.4 | 0.2 | 2.7 | 27
O=C(O)CN1C(=O)/C(=C/c2c(F)cccc2F)SC1=S [Compound 3p] | > 50 | 6.8 ± 0.2 | 32.1 ± 2.3 | > 50 | > 50
CN1CCN(NC(=O)CN2C(=O)/C(=C/c3cc(Cl)ccc3Cl)SC2=S)CC1 [Compound 5o] | > 50 | > 50 | 2.8 | 7 | 15.4
CN1CCN(NC(=O)CN2C(=O)/C(=C/c3ccccc3Cl)SC2=S)CC1 [Compound 5g] | > 50 | 2 | 9.8 | 7.6 | > 50
O=C(O)/C(S)=C/c1ccccc1Br [Compound 6h] | 16.2 | 2.7 | 3.5 | 0.8 | 5.8
Cc1ccc(/C=C2\SC(=S)N(CC(=O)O)C2=O)cc1 [Compound 3b] | > 50 | 32 ± 0.7 | > 50 | > 50 | > 50
CN1CCN(NC(=O)CN2C(=O)/C(=C/c3c(F)cccc3Cl)SC2=S)CC1 [Compound 5j] | > 50 | 0.8 | 0.1 | 0.3 | 2
O=C(O)/C(S)=C/c1ccccc1Cl [Compound 6g] | 5.1 | 0.4 | 0.1 | 0.4 | 0.9
CN1CCN(NC(=O)CN2C(=O)/C(=C/c3csc4ccccc34)SC2=S)CC1 [Compound 5L] | > 50 | 41.8 | > 50 | > 50 | 7.2
O=C(O)CN1C(=O)/C(=C/c2ccc(F)cc2)SC1=S [Compound 3c] | > 50 | 34.5 ± 0.6 | > 50 | > 50 | > 50
O=C(O)/C(S)=C/c1csc2ccccc12 [Compound 6L] | 11.1 | 0.5 | 0.4 | 0.7 | 3.1
Cc1ccc(/C=C2\SC(=S)N(CC(=O)NN3CCN(C)CC3)C2=O)cc1 [Compound 5b] | 28 | > 50 | > 50 | > 50 | > 50
O=C(O)/C(S)=C/c1ccc(F)cc1 [Compound 6c] | 5 | 9.7 | 4.1 | 2.7 | 8.2
O=C(O)/C(S)=C/c1c(F)cccc1Cl [Compound 6j] | 4.4 | 0.05 | 0.0043 | 0.03 | 0.06
O=C(O)/C(S)=C/c1ccccc1I [Compound 6i] | 5 | 3.5 | 1.4 | 0.7 | 
O=C(O)/C(S)=C/c1ccc(Br)cc1 [Compound 6d] |  | 9.4 | 2.3 | 3.3 | 9.9
